The source of these data is patent US6057371A, “Sigma receptor ligands and the use thereof” (Virginia Commonwealth University, priority 1992, dated 2000).

One test addresses T1, 5-HT1A receptor (Rattus norvegicus, UniProt P19327).
T1 sequence (P19327 1-422): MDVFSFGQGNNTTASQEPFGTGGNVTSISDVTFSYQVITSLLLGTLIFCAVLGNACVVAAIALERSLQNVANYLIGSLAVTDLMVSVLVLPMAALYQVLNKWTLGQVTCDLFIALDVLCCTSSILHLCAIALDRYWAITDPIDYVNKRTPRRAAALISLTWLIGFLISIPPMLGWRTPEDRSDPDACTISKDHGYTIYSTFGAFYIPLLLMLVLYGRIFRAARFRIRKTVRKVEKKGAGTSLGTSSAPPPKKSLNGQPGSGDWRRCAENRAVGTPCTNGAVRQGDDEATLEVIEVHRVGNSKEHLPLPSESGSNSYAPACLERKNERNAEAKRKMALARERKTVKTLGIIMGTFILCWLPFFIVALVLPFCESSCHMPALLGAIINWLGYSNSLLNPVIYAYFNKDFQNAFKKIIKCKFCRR
Briefly: biochemical. It counts as binding. Details: 47: 529-540 (1986); from tissue; host or cells: brain tissue, inferred from the cited method (rat frontal cortex). The note with it: Table 5; for IC50: read-out: 5-HT1A IC50. The protocol:
Further sigma receptor binding assays against [^3 H]DTG and 5HT-1A binding assays were conducted according to the procedure outlined in the previous examples.

Another test concerns the target PCP receptor. Kind of test: PCP receptor binding, ^3 H-MK-801. Details: species or system rat. The conditions noted are these: Table 4. The protocol: PCP receptor binding assays against ^3 H-MK-801 were conducted as described by Keana et al., Proc. Natl. Acad. Sci (USA) 86: 5631-5635 (1989); Keana et al., Life Sciences 43: 965-973 (1988). For (+) ^3 H-MK-801 binding, 1 nM of radioligand was incubated with about 100 ug of thawed rat brain membrane protein for 4 hr at room temperature. The assays were carried out in 5 mM Tris/acetate and were stopped by rapid filtration through Whatman GF/B or Schleicher & Schuell no. 32 glass fiber filters (presoaked in 0.05% polyethylenamine).

The subject of the next test is sigma receptor. Kind of test: Sigma receptor binding, [^3 H]DTG, brain membranes (both sigma-1 and sigma-2 sites). Further details: species or system guinea pig. The note with it: Examples 5 and 6; [^3 H]DTG.

Each structure is given as a SMILES string.

The IC50 is the point on the concentration scale where inhibition reaches its midpoint.

As for `C[C@H](N[C@@H](C)Cc1ccccc1)c1ccccc1` [Compound 26], on 5-HT1A receptor, the “Ratio 5-HT1A /σ” value is 3.5 and the IC50 came out at 10 µM. For the same compound, the IC50 on PCP receptor is > 10 µM.

Turning to `C[C@@H](N)Cc1ccc(I)cc1` [Compound 29], at 5-HT1A receptor, the “Ratio 5-HT1A /σ” value is given as 3.1 and the IC50 worked out at 15.5 µM. On PCP receptor, the IC50 is > 10 µM.

Turning to `C[C@H](Cc1ccccc1)NCCC(=O)c1ccccc1` [Compound 9], at 5-HT1A receptor, the “Ratio 5-HT1A /σ” value was 2 and the IC50 was 0.122 µM. The IC50 at PCP receptor was > 10 µM.

Take `c1ccc(CCCN2CCC(c3ccccc3)CC2)cc1` [Compound 39]: at 5-HT1A receptor, the “Ratio 5-HT1A /σ” value is reported as 75 and the IC50 was 0.0896 µM. For the same compound, on PCP receptor, the IC50 was > 10 µM.

Take `Clc1ccc(C2=CCN(CCCCc3ccccc3)CC2)cc1` [Compound 38]: the “Ratio 5-HT1A /σ” value at 5-HT1A receptor came out at 25. For the same compound, the IC50 at 5-HT1A receptor is 0.107 µM; on PCP receptor, > 10 µM.

As for `CCN[C@H](C)Cc1ccccc1` [Compound 4], on 5-HT1A receptor, the “Ratio 5-HT1A /σ” value turned out to be 5.9 and the IC50 was 4.05 µM. Further, the IC50 on PCP receptor was > 10 µM.

`CN[C@H](C)Cc1ccccc1` [Compound 3]: the IC50 on 5-HT1A receptor is 1.78 µM; on PCP receptor, > 10 µM.

On to `CC(Cc1ccccc1)NCC1CC1` (stereo not drawn) [Compound 24], for which the “Ratio 5-HT1A /σ” value on 5-HT1A receptor amounted to 1.4. For the same compound, the IC50 at 5-HT1A receptor is 0.956 µM; on PCP receptor, > 10 µM.

`c1ccc(CCCCN2CCN(c3ccccc3)CC2)cc1` [Compound 48]: at 5-HT1A receptor, the “Ratio 5-HT1A /σ” value is 2.3 and the IC50 stood at 0.0063 µM. Besides, the IC50 on PCP receptor is > 10 µM.

On to `C[C@H](Cc1ccccc1)NCCOc1ccccc1` [Compound 8], for which, at 5-HT1A receptor, the “Ratio 5-HT1A /σ” value is “.92” and the IC50 came out at 0.0437 µM. For the same compound, on PCP receptor, the IC50 is > 10 µM. The “change in sigma receptor affinity vs. analog” value in the test with sigma receptor is on record as “about 7 fold”.

Consider `Clc1cccc(N2CCN(CCCc3ccccc3)CC2)c1` [Compound 33], for which the “Ratio 5-HT1A /σ” value on 5-HT1A receptor amounted to 2.6. Further, the IC50 was 0.0516 µM at 5-HT1A receptor and > 10 µM on PCP receptor.

`C[C@@H](N)Cc1ccc([N+](=O)[O-])cc1` [Compound 30]: on 5-HT1A receptor, the “Ratio 5-HT1A /σ” value is reported as 2.6 and the 50% inhibitory concentration (IC50) was 55 µM. The IC50 on PCP receptor was > 10 µM.

Consider `C[C@@H](Cc1ccccc1)NCCc1ccccc1` [Compound 27], for which, on 5-HT1A receptor, the “Ratio 5-HT1A /σ” value turned out to be 200 and the IC50 came out at 6.51 µM. In addition, the IC50 at PCP receptor was > 10 µM.

For `FC(F)(F)c1cccc(N2CCN(CCCCc3ccccc3)CC2)c1` [Compound 47], at 5-HT1A receptor, the “Ratio 5-HT1A /σ” value was 1.6 and the IC50 worked out at 0.00923 µM. The IC50 on PCP receptor is > 10 µM.

Consider `c1ccc(CCCNC2Cc3ccccc3C2)cc1` [Compound 14], for which, at 5-HT1A receptor, the “Ratio 5-HT1A /σ” value is 5.4 and the IC50 is 0.154 µM. Besides, the IC50 at PCP receptor is > 10 µM.

For the compound `C[C@@H](Cc1ccccc1)NCCCc1ccc2ccccc2c1` [Compound 42], the “Ratio 5-HT1A /σ” value at 5-HT1A receptor amounted to 110. Further, the IC50 on 5-HT1A receptor is 0.572 µM; at PCP receptor, > 10 µM.

As to `c1ccc(CCCN2CCN(c3ccc4ccccc4c3)CC2)cc1` [Compound 50], on 5-HT1A receptor, the “Ratio 5-HT1A /σ” value is 94 and the IC50 was 0.282 µM. Also, the IC50 at PCP receptor was > 10 µM.

Turning to `c1ccc(CCCN2CCN(c3ccccc3)CC2)cc1` [Compound 46], on 5-HT1A receptor, the “Ratio 5-HT1A /σ” value amounted to 3 and the IC50 stood at 0.0215 µM. The IC50 at PCP receptor is > 10 µM.

`C[C@H](Cc1ccccc1)NCC#Cc1ccccc1` [Compound 25]: at 5-HT1A receptor, the “Ratio 5-HT1A /σ” value was 7.3 and the IC50 came to 0.753 µM. At PCP receptor, the IC50 is > 10 µM.

For `c1ccc(CN2CCOC(c3ccccc3)C2)cc1` (stereo not drawn) [Compound 35], at 5-HT1A receptor, the “Ratio 5-HT1A /σ” value worked out at 40 and the IC50 was 10.4 µM. In addition, on PCP receptor, the IC50 was > 10 µM.
